Measurements reported in US7754880B2, “Uracils having a herbicidal activity” (Isagro Ricerca S.r.l., priority 2002, dated 2010).

What was measured:
Solanum nigrum [1] = assay: Herbicidal activity in pre-emergence; assay type: in vivo; settings: dosage of 15 g/ha, fifteen days after the treatment, damage vs non-treated plants
Procedure: (§1) Determination of the Herbicidal Activity and Phytotoxicity in Pre-Emergence The herbicidal activity of the compounds of the invention in pre-emergence was evaluated according to the following operative procedures. The vegetable species of interest (weeds or crops) were sown in pots with an upper diameter of 10 cm, a height of 10 cm and containing sandy soil. 10 pots were used for each vegetable species. Water was added to each pot in such a quantity as to germinate the seeds. The pots were divided into two groups, each containing 5 pots for each weed or crop. After one day from the sowing, the first set of pots was treated with a hydro-acetonic dispersion containing acetone at 10% in volume, the product under evaluation at the desired concentration and Tween 20 at 0.5%. The second set was treated with a hydro-acetonic solution only, containing acetone at 10% in volume and Tween 20 at 0.5%, and was used as comparison (blank). All pots were kept under observation in a conditioned environment under the following conditions: temperature: 24° C.; relative humidity: 60%; photoperiod: 16 ore; light intensity: 10000 lux. The pots were uniformly watered in order to ensure a sufficient humidity degree for a good development of the plants.

Convolvulus sepium [2] = assay: Herbicidal activity in pre-emergence; assay type: in vivo; settings: dosage of 15 g/ha, fifteen days after the treatment, damage vs non-treated plants
Procedure: as §1

Galium aparine [3] = assay: Herbicidal activity in pre-emergence; assay type: in vivo; settings: dosage of 15 g/ha, fifteen days after the treatment, damage vs non-treated plants
Procedure: as §1

Portulaca oleracea [4] = assay: Herbicidal activity in pre-emergence; assay type: in vivo; settings: dosage of 15 g/ha, fifteen days after the treatment, damage vs non-treated plants
Procedure: as §1

Sida spinosa [5] = assay: Herbicidal activity in pre-emergence; assay type: in vivo; settings: dosage of 15 g/ha, fifteen days after the treatment, damage vs non-treated plants
Procedure: as §1

Chenopodium album [6] = assay: Herbicidal activity in pre-emergence; assay type: in vivo; settings: dosage of 15 g/ha, fifteen days after the treatment, damage vs non-treated plants
Procedure: as §1

Amaranthus retroflexus [7] = assay: Herbicidal activity in pre-emergence; assay type: in vivo; settings: dosage of 15 g/ha, fifteen days after the treatment, damage vs non-treated plants
Procedure: as §1

Ipomea purpurea [8] = assay: Herbicidal activity in pre-emergence; assay type: in vivo; settings: dosage of 15 g/ha, fifteen days after the treatment, damage vs non-treated plants
Procedure: as §1

Abutilon theofrasti [9] = assay: Herbicidal activity in pre-emergence; assay type: in vivo; settings: dosage of 15 g/ha, fifteen days after the treatment, damage vs non-treated plants
Procedure: as §1

Solanum nigrum [10] = assay: Herbicidal activity in post-emergence; assay type: in vivo; settings: dosage of 15 g/ha, fifteen days after the treatment, damage vs non-treated plants
Procedure: (§2) Determination of the Herbicidal Activity and Phytotoxicity in Post-Emergence The herbicidal activity of the compounds of the invention in post-emergence was evaluated according to the following operative procedures. The vegetable species of interest (weeds or crops) were sown in pots with an upper diameter of 10 cm, a height of 10 cm and containing sandy soil. 10 pots were used for each vegetable species. Water was added to each pot in such a quantity as to germinate the seeds. The pots were divided into two groups, each containing 5 pots for each weed or crop. Fifteen days after sowing (ten, in the case of wheat), when the weeds and crops, according to the species, were 10-15 cm high, the first set of pots was treated with a hydro-acetonic dispersion containing acetone at 10% in volume, the product under evaluation at the desired concentration and Tween 20 at 0.5%. The second set was treated with a hydro-acetonic solution only, containing acetone at 10% in volume and Tween 20 at 0.5%, and was used as comparison (blank). All pots were kept under observation in a conditioned environment under the following conditions: temperature: 24° C.; relative humidity: 60%; photo-period: 16 ore; light intensity: 10000 lux. The pots were uniformly watered every other day so as to ensure a humidity degree sufficient for a good development of the plants.

Convolvulus sepium [11] = assay: Herbicidal activity in post-emergence; assay type: in vivo; settings: dosage of 15 g/ha, fifteen days after the treatment, damage vs non-treated plants
Procedure: as §2

Galium aparine [12] = assay: Herbicidal activity in post-emergence; assay type: in vivo; settings: dosage of 15 g/ha, fifteen days after the treatment, damage vs non-treated plants
Procedure: as §2

Portulaca oleracea [13] = assay: Herbicidal activity in post-emergence; assay type: in vivo; settings: dosage of 15 g/ha, fifteen days after the treatment, damage vs non-treated plants
Procedure: as §2

Sida spinosa [14] = assay: Herbicidal activity in post-emergence; assay type: in vivo; settings: dosage of 15 g/ha, fifteen days after the treatment, damage vs non-treated plants
Procedure: as §2

Chenopodium album [15] = assay: Herbicidal activity in post-emergence; assay type: in vivo; settings: dosage of 15 g/ha, fifteen days after the treatment, damage vs non-treated plants
Procedure: as §2

Amaranthus retroflexus [16] = assay: Herbicidal activity in post-emergence; assay type: in vivo; settings: dosage of 15 g/ha, fifteen days after the treatment, damage vs non-treated plants
Procedure: as §2

Ipomea purpurea [17] = assay: Herbicidal activity in post-emergence; assay type: in vivo; settings: dosage of 15 g/ha, fifteen days after the treatment, damage vs non-treated plants
Procedure: as §2

Abutilon theofrasti [18] = assay: Herbicidal activity in post-emergence; assay type: in vivo; settings: dosage of 15 g/ha, fifteen days after the treatment, damage vs non-treated plants
Procedure: as §2

## COC(=O)/C=C(\COc1cc(-n2c(=O)cc(C(F)(F)F)n(C)c2=O)c(F)cc1Cl)OC [Compound No 2, methyl (2E)-4-{2-chloro-4-fluoro-5-[1,2,3,6-tetrahydro-3-methyl-2,6-dioxo-4-(trifluoromethyl)pyrimidin-1-yl]phenoxy}-3-methoxybut-2-enoate]
Solanum nigrum [1]
  Herbicidal activity in pre-emergence, SN: 5 (5=91% damage—death of the plant)
Convolvulus sepium [2]
  Herbicidal activity in pre-emergence, CS: 5 (5=91% damage—death of the plant)
Galium aparine [3]
  Herbicidal activity in pre-emergence, GA: 5 (5=91% damage—death of the plant)
Portulaca oleracea [4]
  Herbicidal activity in pre-emergence, PO: 5 (5=91% damage—death of the plant)
Sida spinosa [5]
  Herbicidal activity in pre-emergence, SS: 5 (5=91% damage—death of the plant)
Chenopodium album [6]
  Herbicidal activity in pre-emergence, CA: 5 (5=91% damage—death of the plant)
Amaranthus retroflexus [7]
  Herbicidal activity in pre-emergence, AR: 5 (5=91% damage—death of the plant)
Ipomea purpurea [8]
  Herbicidal activity in pre-emergence, IP: 5 (5=91% damage—death of the plant)
Abutilon theofrasti [9]
  Herbicidal activity in pre-emergence, AT: 5 (5=91% damage—death of the plant)
Solanum nigrum [10]
  Herbicidal activity in post-emergence, SN: 5 (5=91% damage—death of the plant)
Convolvulus sepium [11]
  Herbicidal activity in post-emergence, CS: 5 (5=91% damage—death of the plant)
Galium aparine [12]
  Herbicidal activity in post-emergence, GA: 5 (5=91% damage—death of the plant)
Portulaca oleracea [13]
  Herbicidal activity in post-emergence, PO: 4 (4=71-90% damage)
Sida spinosa [14]
  Herbicidal activity in post-emergence, SS: 5 (5=91% damage—death of the plant)
Chenopodium album [15]
  Herbicidal activity in post-emergence, CA: 5 (5=91% damage—death of the plant)
Amaranthus retroflexus [16]
  Herbicidal activity in post-emergence, AR: 5 (5=91% damage—death of the plant)
Ipomea purpurea [17]
  Herbicidal activity in post-emergence, IP: 5 (5=91% damage—death of the plant)
Abutilon theofrasti [18]
  Herbicidal activity in post-emergence, AT: 5 (5=91% damage—death of the plant)

## Cn1c(C(F)(F)F)cc(=O)n(-c2cc(OCc3nnc(C(C)(C)C)o3)c(Cl)cc2F)c1=O [Compound No 6, 3-{5-[(5-tert-butyl-1,3,4-oxadiazol-2-yl)methoxy]-4-chloro-2-fluorophenyl}-1-methyl-6-(trifluoromethyl)-2,4(1H,3H)-pyrimidinedione]
Solanum nigrum [1]
  Herbicidal activity in pre-emergence, SN: 5 (5=91% damage—death of the plant)
Galium aparine [3]
  Herbicidal activity in pre-emergence, GA: 5 (5=91% damage—death of the plant)
Portulaca oleracea [4]
  Herbicidal activity in pre-emergence, PO: 5 (5=91% damage—death of the plant)
Sida spinosa [5]
  Herbicidal activity in pre-emergence, SS: 5 (5=91% damage—death of the plant)
Chenopodium album [6]
  Herbicidal activity in pre-emergence, CA: 5 (5=91% damage—death of the plant)
Amaranthus retroflexus [7]
  Herbicidal activity in pre-emergence, AR: 4 (4=71-90% damage)
Ipomea purpurea [8]
  Herbicidal activity in pre-emergence, IP: 4 (4=71-90% damage)
Abutilon theofrasti [9]
  Herbicidal activity in pre-emergence, AT: 5 (5=91% damage—death of the plant)
Solanum nigrum [10]
  Herbicidal activity in post-emergence, SN: 5 (5=91% damage—death of the plant)
Portulaca oleracea [13]
  Herbicidal activity in post-emergence, PO: 4 (4=71-90% damage)
Sida spinosa [14]
  Herbicidal activity in post-emergence, SS: 4 (4=71-90% damage)
Chenopodium album [15]
  Herbicidal activity in post-emergence, CA: 4 (4=71-90% damage)
Amaranthus retroflexus [16]
  Herbicidal activity in post-emergence, AR: 3 (3=51-70% damage)
Ipomea purpurea [17]
  Herbicidal activity in post-emergence, IP: 5 (5=91% damage—death of the plant)
Abutilon theofrasti [18]
  Herbicidal activity in post-emergence, AT: 5 (5=91% damage—death of the plant)

## Cn1nnc(-c2cc(-n3c(=O)cc(C(F)(F)F)n(C)c3=O)ccc2Cl)n1 [Compound No 13, 3-[4-chloro-3-(2-methyl-2H-tetrazol-5-yl)phenyl]-1-methyl-6-(trifluoromethyl)-2,4(1H,3H)-pyrimidinedione]
Solanum nigrum [1]
  Herbicidal activity in pre-emergence, SN: 5 (5=91% damage—death of the plant)
Galium aparine [3]
  Herbicidal activity in pre-emergence, GA: 5 (5=91% damage—death of the plant)
Portulaca oleracea [4]
  Herbicidal activity in pre-emergence, PO: 5 (5=91% damage—death of the plant)
Sida spinosa [5]
  Herbicidal activity in pre-emergence, SS: 5 (5=91% damage—death of the plant)
Chenopodium album [6]
  Herbicidal activity in pre-emergence, CA: 5 (5=91% damage—death of the plant)
Amaranthus retroflexus [7]
  Herbicidal activity in pre-emergence, AR: 5 (5=91% damage—death of the plant)
Ipomea purpurea [8]
  Herbicidal activity in pre-emergence, IP: 5 (5=91% damage—death of the plant)
Abutilon theofrasti [9]
  Herbicidal activity in pre-emergence, AT: 5 (5=91% damage—death of the plant)
Solanum nigrum [10]
  Herbicidal activity in post-emergence, SN: 5 (5=91% damage—death of the plant)
Portulaca oleracea [13]
  Herbicidal activity in post-emergence, PO: 5 (5=91% damage—death of the plant)
Sida spinosa [14]
  Herbicidal activity in post-emergence, SS: 5 (5=91% damage—death of the plant)
Chenopodium album [15]
  Herbicidal activity in post-emergence, CA: 5 (5=91% damage—death of the plant)
Amaranthus retroflexus [16]
  Herbicidal activity in post-emergence, AR: 5 (5=91% damage—death of the plant)
Ipomea purpurea [17]
  Herbicidal activity in post-emergence, IP: 5 (5=91% damage—death of the plant)
Abutilon theofrasti [18]
  Herbicidal activity in post-emergence, AT: 5 (5=91% damage—death of the plant)
other
  melting point: 192 °C

## CN(C)C(=O)Cn1nnc(-c2cc(-n3c(=O)cc(C(F)(F)F)n(C)c3=O)ccc2Cl)n1 [Compound No 125, 2-(5-{2-chloro-5-[1,2,3,6-tetrahydro-3-methyl-2,6-dioxo-4-(trifluoromethyl)pyrimidin-1-yl]phenyl}-2H-tetrazol-2-yl)-N,N-dimethylacetamide]
other
  melting point: 208 °C

## Cn1c(C(F)(F)F)cc(=O)n(-c2ccc(Cl)c(-c3nnn(CC(N)=O)n3)c2)c1=O [Compound No 126, 2-(5-{2-chloro-5-[1,2,3,6-tetrahydro-3-methyl-2,6-dioxo-4-(trifluoromethyl)pyrimidin-1-yl]phenyl}-2H-tetrazol-2-yl)acetamide]
other
  melting point: 200 °C

## CC(C)Cc1csc(-c2cc(-n3c(=O)cc(C(F)(F)F)n(C)c3=O)c(Cl)cc2Cl)n1 [Compound No 129, 3-[2,4-dichloro-5-(4-isobutyl-1,3-thiazol-2-yl)phenyl]-1-methyl-6-(trifluoromethyl) 2,4(1H,3H)-pyrimidinedione]
other
  melting point: 167 °C

## CCOC(=O)c1sc(-c2cc(-n3c(=O)cc(C(F)(F)F)n(C)c3=O)ccc2Cl)nc1C [Compound No 131, ethyl 2-{2-chloro-5-[1,2,3,6-tetrahydro-3-methyl-2,6-dioxo-4-(trifluoromethyl)pyrimidin-1-yl]phenyl}-4-methyl-1,3-thiazole-5-carboxylate]
other
  melting point: 200 °C

## Cn1c(C(F)(F)F)cc(=O)n(-c2cc(OCc3cc(C(C)(C)C)no3)c(Cl)cc2F)c1=O [Compound No 132, 3-{5-[(3-tert-butylisoxazol-5-yl)methoxy]-4-chloro-2-fluorophenyl}-1-methyl-6-(trifluoromethyl)-2,4(1H,3H)-pyrimidinedione]
other
  melting point: 142 °C

## CC(C)c1cc(COc2cc(-n3c(=O)cc(C(F)(F)F)n(C)c3=O)c(F)cc2Cl)on1 [Compound No 133, 3-{4-chloro-2-fluoro-5-[(3-isopropylisoxazol-5-yl)methoxy]phenyl}-1-methyl-6-(trifluoromethyl)-2,4(1H,3H)-pyrimidinedione]
other
  melting point: 128 °C

## CC(C)n1nnc(-c2cc(-n3c(=O)cc(C(F)(F)F)n(C)c3=O)ccc2Cl)n1 [Compound No 134, 3-[4-chloro-3-(2-isopropyl-2H-tetrazol-5-yl)phenyl]-1-methyl-6-(trifluoromethyl)-2,4(1H,3H)-pyrimidinedione]
other
  melting point: 147 °C

## CCOC(=O)c1csc(-c2cc(-n3c(=O)cc(C(F)(F)F)n(C)c3=O)ccc2Cl)n1 [Compound No 156, ethyl 2-{2-chloro-5-[1,2,3,6-tetrahydro-3-methyl-2,6-dioxo-4-(trifluoromethyl)pyrimidin-1-yl]phenyl}-1,3-thiazole-4-carboxylate]
other
  melting point: 197 °C

## CCCCn1nnc(-c2cc(-n3c(=O)cc(C(F)(F)F)n(C)c3=O)ccc2Cl)n1 [Compound No 157, 3-[3-(2-butyl-2H-tetrazol-5-yl)-4-chlorophenyl]-1-methyl-6-(trifluoromethyl)-2,4(1H,3H)-pyrimidinedione]
other
  melting point: 108 °C
